From patent US12624018B1, “Inhibitors of RIPK2 and medical uses thereof” (Odyssey Therapeutics, Inc., priority 2022, dated 2026)

Molecular target: T1, RIPK2 enzyme (Homo sapiens, UniProt O43353)
T1 construct: purchased Carna 09-128
Assay: RIPK2 inhibition (ADP-Glo Kinase Assay)
Type: biochemical
Details: RIPK2 5 nM, ATP 150 μM, MBP substrate, read-out: RIPK2 IC50
Outline: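 Swine MBP substrate; compound and 5 nM RIPK2 first mixed for 30 min at room temperature; buffer pH 7.5 HEPES 50 mM with 10 mM MgCl2, 2 mM DTT, 1 mM EGTA, Brij-35, BSA.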

T1 sequence (O43353 1-299 limits assumed): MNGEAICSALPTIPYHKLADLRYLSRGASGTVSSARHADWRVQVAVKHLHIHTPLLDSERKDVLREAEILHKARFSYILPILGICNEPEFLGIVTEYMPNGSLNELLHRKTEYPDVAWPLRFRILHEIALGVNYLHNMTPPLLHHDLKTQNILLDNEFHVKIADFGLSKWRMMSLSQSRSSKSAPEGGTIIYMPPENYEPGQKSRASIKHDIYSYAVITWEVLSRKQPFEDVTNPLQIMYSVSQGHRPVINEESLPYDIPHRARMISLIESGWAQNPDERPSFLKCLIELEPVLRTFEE

| IC50 | Compound |
| --- | --- |
| < 2.5 nM | Cc1cc(CC(=O)Nc2cnn(C(C)(C)C)c2)c(F)cc1Oc1ccnc2ccc(OC3CCN(C)CC3)cc12 [Compound 115, N-(1-(tert-butyl)-1H-pyrazol-4-yl)-2-(2-fluoro-5-methyl-4-((6-((1-methyl-piperidin-4-yl)oxy)quinolin-4-yl)oxy)phenyl) acetamide] |
| < 2.5 nM | Cc1cc(CC(=O)Nc2cnn(C(C)(C)C)c2)c(F)cc1Oc1ccnc2ccc(C(=O)N[C@H]3C[C@@H](O)C3)cc12 [Compound 394, 4-(4-(2-((1-(tert-butyl)-1H-pyrazol-4-yl)amino)-2-oxoethyl)-5-fluoro-2-methyl-phenoxy)-N-((1s,3s)-3-hydroxy-cyclobutyl) quinoline-6-carboxamide] |
| < 2.5 nM | Cc1c(Oc2ccnc3ccc(C4CCNC4=O)cc23)ccc(CC(=O)Nc2cnn(C(C)(C)C)c2)c1F (single isomer, unassigned) [Compound 305, N-(1-(tert-butyl)-1H-pyrazol-4-yl)-2-(2-fluoro-3-methyl-4-((6-(2-oxopyrrolidin-3-yl)quinolin-4-yl)oxy)phenyl)acetamide] |
| < 2.5 nM | CC(C)(C)n1cc(NC(=O)Cc2ccc(Oc3ccnc4ccc(N5CCCC5=O)cc34)cc2F)cn1 [Compound 152, N-(1-(tert-butyl)-1H-pyrazol-4-yl)-2-(2-fluoro-4-((6-(2-oxopyrrolidin-1-yl)quinolin-4-yl)oxy)phenyl) acetamide] |
| 4.9 nM | CCN1CCC(Oc2ccc3ncnc(Oc4cnc(CC(=O)Nc5cnn(C(C)(C)C)c5)c(F)c4)c3c2)CC1 [Compound 56, N-(1-(tert-butyl)-1H-pyrazol-4-yl)-2-(5-((6-((1-ethylpiperidin-4-yl)oxy)quinazolin-4-yl)oxy)-3-fluoropyridin-2-yl)acetamide] |
| < 2.5 nM | COC(C)(C)c1cc(NC(=O)Cc2ccc(Oc3ccnc4ccc(S(C)(=O)=O)cc34)c(C)c2)[nH]n1 [Compound 330, N-(5-(2-methoxypropan-2-yl)-1H-pyrazol-3-yl)-2-(3-methyl-4-((6-(methylsulfonyl)quinolin-4-yl)oxy)phenyl)acetamide] |
| < 2.5 nM | Cc1c(Oc2ccnc3ccc(S(=O)(=O)N4CCC4)cc23)ccc(CC(=O)Nc2cnn(C(C)(C)C)c2)c1F [Compound 271, 2-(4-((6-(azetidin-1-ylsulfonyl)quinolin-4-yl)oxy)-2-fluoro-3-methylphenyl)-N-(1-(tert-butyl)-1H-pyrazol-4-yl)acetamide] |
| < 2.5 nM | Cc1c(Oc2ccnc3ccc(S(=O)(=O)N4CCOCC4)cc23)ccc(CC(=O)Nc2cnn(C(C)(C)C)c2)c1F [Compound 274, N-(1-(tert-butyl)-1H-pyrazol-4-yl)-2-(2-fluoro-3-methyl-4-((6-(morpholinosulfonyl)quinolin-4-yl)oxy)phenyl)acetamide] |
| < 2.5 nM | Cc1cc(CC(=O)Nc2cnn(C(C)(C)C)c2)ccc1Oc1ccnc2ccc(P3(=O)CCCC3)cc12 [Compound 181, N-(1-(tert-butyl)-1H-pyrazol-4-yl)-2-(3-methyl-4-((6-(1-oxidophospholan-1-yl)quinolin-4-yl)oxy)phenyl) acetamide] |
| < 2.5 nM | Cc1c(Oc2ccnc3ccc(S(=O)(=O)C4CC(N)C4)cc23)ccc(CC(=O)Nc2cnn(C(C)(C)C)c2)c1F (single isomer, unassigned) [Compound 287, 2-(4-((6-((-3-aminocyclobutyl)sulfonyl)quinolin-4-yl)oxy)-2-fluoro-3-methylphenyl)-N-(1-(tert-butyl)-1H-pyrazol-4-yl)acetamide] |
| < 2.5 nM | Cc1cc(CC(=O)Nc2cnn(C(C)(C)C)c2)c(F)cc1Oc1ccnc2ccc(C(=O)NCC3COC3)cc12 [Compound 391, 4-(4-(2-((1-(tert-butyl)-1H-pyrazol-4-yl)amino)-2-oxoethyl)-5-fluoro-2-methyl-phenoxy)-N-(oxetan-3-ylmethyl) quinoline-6-carboxamide] |
| 23.9 nM | CC(C)c1ccnc(NC(=O)Cc2ccc(Oc3ncnc4ccc(F)cc34)cc2F)c1 [Compound 22, 2-(2-fluoro-4-((6-fluoroquinazolin-4-yl)oxy)phenyl)-N-(4-isopropylpyridin-2-yl)acetamide] |
| < 2.5 nM | Cc1cc(CC(=O)Nc2cnn(C(C)(C)C)c2)ccc1Oc1ccnc2ccc(S(=O)(=O)C3CCOC3)cc12 (single isomer, unassigned) [Compound 200, N-(1-(tert-butyl)-1H-pyrazol-4-yl)-2-(3-methyl-4-((6-((tetrahydrofuran-3-yl)sulfonyl)quinolin-4-yl)oxy)phenyl)acetamide] |
| < 2.5 nM | Cc1cc(CC(=O)Nc2cnn(C(C)(C)C)c2)ccc1Oc1ccnc2ccc(OC3CCN(CC(F)(F)F)CC3)cc12 [Compound 110, N-(1-(tert-butyl)-1H-pyrazol-4-yl)-2-(3-methyl-4-((6-((1-(2,2,2-trifluoroethyl)piperidin-4-yl)oxy)quinolin-4-yl)oxy)phenyl) acetamide] |
| < 2.5 nM | Cc1c(Oc2ccnc3ccc(C(=O)N4CCC4)cc23)ccc(CC(=O)Nc2cnn(C(C)(C)C)c2)c1F [Compound 344, 2-(4-((6-(azetidine-1-carbonyl)quinolin-4-yl)oxy)-2-fluoro-3-methyl-phenyl)-N-(1-(tert-butyl)-1H-pyrazol-4-yl)acetamide] |
| 33.3 nM | COc1ccc2ncnc(Oc3ccc(CC(=O)Nc4cc(C5(C(F)(F)F)CC5)ccn4)c(F)c3)c2c1 [Compound 34, 2-(2-fluoro-4-((6-methoxyquinazolin-4-yl)oxy)phenyl)-N-(4-(1-(trifluoromethyl)cyclopropyl)pyridin-2-yl)acetamide] |
| 10.3 nM | CN(C)C1CCN(c2ccc3nccc(Oc4cnc(CC(=O)Nc5cnn(C(C)(C)C)c5)c(F)c4)c3c2)C1 (single isomer, unassigned) [Compound 141, N-(1-(tert-butyl)-1H-pyrazol-4-yl)-2-(5-((6-(3-(dimethylamino)pyrrolidin-1-yl)quinolin-4-yl)oxy)-3-fluoropyridin-2-yl)acetamide] |
| < 2.5 nM | Cc1cc(CC(=O)Nc2cnn(C(C)(C)C)c2)ccc1Oc1ccnc2ccc(S(N)(=O)=O)cc12 [Compound 254, N-(1-(tert-butyl)-1H-pyrazol-4-yl)-2-(3-methyl-4-((6-sulfamoylquinolin-4-yl)oxy)phenyl)acetamide] |
| < 2.5 nM | Cc1cc(CC(=O)Nc2cnn(C(C)(C)C)c2)c(F)cc1Oc1ccnc2ccc(C(=O)N3CC(O)C3)cc12 [Compound 373, N-(1-(tert-butyl)-1H-pyrazol-4-yl)-2-(2-fluoro-4-((6-(3-hydroxy-azetidine-1-carbonyl)quinolin-4-yl)oxy)-5-methylphenyl) acetamide] |
| < 2.5 nM | Cc1cc(CC(=O)Nc2cnn(C(C)(C)C)c2)c(F)cc1Oc1ccnc2ccc(C(=O)NCCO)cc12 [Compound 364, 4-(4-(2-((1-(tert-butyl)-1H-pyrazol-4-yl)amino)-2-oxoethyl)-5-fluoro-2-methyl-phenoxy)-N-(2-hydroxy-ethyl) quinoline-6-carboxamide] |
| < 2.5 nM | CC(C)(C)n1cc(NC(=O)Cc2ccc(Oc3ccnc4ccc(S5(=O)=NCCCC5)cc34)cc2F)cn1 (centres unmarked) [Compound 67, N-(1-(tert-butyl)-1H-pyrazol-4-yl)-2-(2-fluoro-4-((6-(1-oxido-3,4,5,6-tetrahydro-1λ^6,2-thiazin-1-yl)quinolin-4-yl)oxy)phenyl)acetamide] |
| < 2.5 nM | [2H]C([2H])([2H])c1cc(CC(=O)Nc2cnn(C(C)(C)C)c2)ccc1Oc1ccnc2ccc(S(C)(=O)=O)cc12 [Compound 93, N-(1-(tert-butyl)-1H-pyrazol-4-yl)-2-(3-(methyl-d3)-4-((6-(methylsulfonyl)quinolin-4-yl)oxy)phenyl)acetamide] |
| < 2.5 nM | Cc1cc(CC(=O)Nc2cnn(C(C)(C)C)c2)ccc1Oc1ccnc2ccc(S(=O)(=O)C3CC(N)C3)cc12 (single isomer, unassigned) [Compound 283, 2-(4-((6-((-3-aminocyclobutyl)sulfonyl)quinolin-4-yl)oxy)-3-methylphenyl)-N-(1-(tert-butyl)-1H-pyrazol-4-yl)acetamide] |
| < 2.5 nM | Cc1c(Oc2ccnc3ccc(C(=O)N4CC(C#N)C4)cc23)ccc(CC(=O)Nc2cnn(C(C)(C)C)c2)c1F [Compound 346, N-(1-(tert-butyl)-1H-pyrazol-4-yl)-2-(4-((6-(3-cyano-azetidine-1-carbonyl)quinolin-4-yl)oxy)-2-fluoro-3-methylphenyl) acetamide] |
| < 2.5 nM | Cc1cc(CC(=O)Nc2cnn(C(C)(C)C)c2)ccc1Oc1ccnc2ccc(OC3CCN(C4COC4)CC3)cc12 [Compound 96, N-(1-(tert-butyl)-1H-pyrazol-4-yl)-2-(3-methyl-4-((6-((1-(oxetan-3-yl)piperidin-4-yl)oxy)quinolin-4-yl)oxy)phenyl) acetamide] |
| 7.4 nM | CC(C)(C)n1cc(NC(=O)Cc2ccc(Oc3ncnc4ccc(C(N)=O)cc34)cc2F)cn1 [Compound 24, 4-(4-(2-((1-(tert-butyl)-1H-pyrazol-4-yl)amino)-2-oxoethyl)-3-fluoro-phenoxy) quinazoline-6-carboxamide] |
| < 2.5 nM | Cc1cc(CC(=O)Nc2cnn(C(C)(C)C)c2)ccc1Oc1ccnc2ccc(S(=O)(=O)C3CCN(C)CC3)cc12 [Compound 97, N-(1-(tert-butyl)-1H-pyrazol-4-yl)-2-(3-methyl-4-((6-((1-methylpiperidin-4-yl)sulfonyl)quinolin-4-yl)oxy)phenyl)acetamide] |
| < 2.5 nM | Cc1cc(CC(=O)Nc2cc(C(C)C)n(C)n2)ccc1Oc1ccnc2ccc(S(C)(=O)=O)cc12 [Compound 233, N-(5-isopropyl-1-methyl-1H-pyrazol-3-yl)-2-(3-methyl-4-((6-(methylsulfonyl)quinolin-4-yl)oxy)phenyl)acetamide] |
| < 2.5 nM | [2H]C([2H])([2H])S(=O)(=O)c1ccc2nccc(Oc3ccc(CC(=O)Nc4cnn(C(C)(C)C)c4)cc3C)c2c1 [Compound 198, N-(1-(tert-butyl)-1H-pyrazol-4-yl)-2-(3-methyl-4-((6-((methyl-d3)sulfonyl)quinolin-4-yl)oxy)phenyl)acetamide] |
